Patent publication US20140066385A1, “METHOD FOR TREATING CANCER BY COMBINED USE OF DRUGS” (Astellas Pharma Inc., priority 2011, published 2014)

Legend:
[1] = system: tumor tissues in human lung cancer cell line Calu-6 tumor-bearing mice; assay: Example 8: immunochemical staining of iNOS, macrophage (F4/80) and nitrotyrosine in Calu-6 tumor tissue; format: in vivo, nude mice
Source text: The dose of FK330 is expressed in terms of the weight of a simple substance (non-hydrate). A paclitaxel injectable preparation (paclitaxel injection liquid “Sawai”) was purchased from Sawai Pharmaceutical Co., Ltd., and was used as paclitaxel. Rat anti-mouse F4/80 antigen monoclonal antibody, rabbit anti-iNOS polyclonal antibody, and rabbit anti-nitrotyrosine antibody were respectively purchased from AbD Serotec (Oxford, UK), Santa Cruz Biotechnology, Inc. (Santa Cruz, Calif., US), and Millipore Corp. (Billerica, Mass., USA) and used.
FK330 was suspended (20 mg/mL) in a 0.5% aqueous methyl cellulose solution (0.5% MC) and orally administered. Paclitaxel was prepared with physiological saline for injection (Otsuka Pharmaceutical Group) to a concentration of 1 mg/mL at the time of use.
Human lung cancer-derived Calu-6 (HTB-56) was obtained from American Type
Culture Collection (VA, USA). The cells were cultured under the conditions of 37° C. and 5% CO2 by using RPMI1640 medium containing 10% heat-inactivated fetal bovine serum (FBS). The cells were harvested with trypsin and were suspended in PBS at 6×10^7 cells/mL, and the suspension was mixed with an equal amount of Matrigel (trade name) Basement Membrane Matrix (manufactured by Becton Dickinson Co., Bedford, Mass., USA).
Five-week old male nude mice (CAnN Cg-Foxn1nu/CrlCrlj(nu/nu)) were purchased from Charles River Laboratories Japan, Inc. (Japan, Kanagawa). The animals were raised under specific pathogen-free (SPF) conditions throughout the test period by feeding standard feedstuff and drinking water. The cultured cells were subcutaneously inoculated into the dorsal region of the nude mice at a concentration of 3×10^6 cells/0.1 mL/mouse. Nude mice which had the tumor volumes (major axis×[minor axis]^2×0.5) ranging from 136.8 mm^3 to 248.5 mm^3 were assigned by using SAS to minimize the fluctuation in the tumor volume between the groups and within the group.
Drug administration was initiated from the first day of administration (Day 0). The respective groups (n=5) were treated as follows. FK330 was orally gavaged in an amount of 5 mL/kg from Day 0 to Day 6, and paclitaxel was intravenously administered through the tail vein in an amount of 10 mL/kg from Day 0 to Day 5.
FK330 single administration group: FK330 100 mg/kg bid (200 mg/kg/day, from Day 0 to Day 6)
Paclitaxel single administration group: Paclitaxel 10 mg/kg/day (from Day 0 to Day 5)
Combined use group: FK330 100 mg/kg bid (200 mg/kg/day, from Day 0 to Day 6)+paclitaxel 10 mg/kg/day (from Day 0 to Day 5)
FK330 was orally gavaged (5 mL/kg) twice a day at an interval of 6 to 8 hours. Paclitaxel was administered by intravenous bolus injection (10 mL/kg) through the tail vein 1 to 4 hours after the administration of FK330.
On Day 6, the tumor tissues were harvested from the mice. Immersion fixation was carried out at 4° C. for 12 hours with a 4% para-formaldehyde-phosphate buffer solution (Wako Pure Chemical Industries, Ltd.). After the tissue fixation, according to the conventional method, sucrose replacement was carried out using 10%, 15% and 20% sucrose/phosphate buffer solutions in a stepwise manner at 4° C. After completion of the replacement, the cancer tissues were embedded in O.C.T. Compound (Toronto Research Chemicals, Inc., Toronto, Canada), and frozen blocks were prepared with dry ice/acetone and stored at −80° C.
Frozen sections at 5 μm thickness were prepared by a cryostat (Sakura Finetech Japan Co., Ltd.) and were air-dried. The dried frozen sections were washed with a 4% para-formaldehyde-phosphate buffer solution, and then in order to inactivate the endogenous peroxidase activity, the sections were treated for 30 minutes with 0.3% hydrogen peroxide/methanol. Mouse macrophage, iNOS and nitrotyrosine staining was carried out by the following procedure. In regard to the iNOS and nitrotyrosine staining, antigen retrieval was carried out by microwave irradiation (3 minutes/500 W) before the immunochemical staining. […]

[2] = system: ischemia/reperfusion injury in rat liver transplantation; settings: reported in Non-Patent Documents 3 and 4; cited from earlier work
[3] = combined use: FK330 100 mg/kg bid p.o. Day 0 to Day 6 + paclitaxel 10 mg/kg/day, Day 6
[4] = paclitaxel 10 mg/kg/day i.v. Day 0 to Day 5 alone, tumor harvested Day 6

SMILES | iNOS protein expression in the tumor [1, 3] | macrophage infiltration in the tumor [1, 3] | nitrotyrosine production in the tumor [1, 3] | efficacy for ischemia/reperfusion injury in rat liver transplantation [2] | amount of nitrotyrosine (major end-product of NO) in the tumor tissue [1, 4] | iNOS protein expression in the tumor tissue [1, 4] | infiltration of macrophages (F4/80) in the tumor tissue [1, 4]
O=C(/C=C/c1ccc(Cl)cc1)N[C@@H](Cc1ccccn1)C(=O)NCC(=O)N1CCC(Oc2cc(C(F)(F)F)ncn2)CC1 [FK330, N^2-[(2E)-3-(4-chlorophenyl)-2-propenoyl]-N-[2-oxo-2-(4-{[6-(trifluoromethyl)pyrimidin-4-yl]oxy}piperidin-1-yl)ethyl]-3-pyridin-2-yl-L-alaninamide] | did not affect | did not affect | suppressed | effective | – | – | –
CC(=O)O[C@H]1C(=O)[C@@]2(C)[C@H]([C@H](OC(=O)c3ccccc3)[C@]3(O)C[C@H](OC(=O)[C@H](O)[C@@H](NC(=O)c4ccccc4)c4ccccc4)C(C)=C1C3(C)C)[C@]1(OC(C)=O)CO[C@@H]1C[C@@H]2O [paclitaxel, reference compound] | – | – | – | – | increased | very clearly accentuated | clearly recognized
